Where a name gives a salt, the structure may show the parent alone.
Assays:
thromboxane synthetase = molecular target: T1, thromboxane synthetase (Rattus norvegicus, UniProt P49430); experiment: Inhibition of thromboxane (TXB2) formation in washed SHR platelets, RIA; type: cell-based, spontaneously hypertensive rats (Okamoto-Aoki); details: 10 min, Dose 10^-4 (unit inferred), about 10 minutes at about 37° C.
T1 construct: The platelets were isolated by centrifuging the PRP; endogenous in cells; host or cells: washed platelets from arterial blood of Okamoto-Aoki spontaneously hypertensive rats (Taconic Farms)
T1 sequence (P49430 1-533): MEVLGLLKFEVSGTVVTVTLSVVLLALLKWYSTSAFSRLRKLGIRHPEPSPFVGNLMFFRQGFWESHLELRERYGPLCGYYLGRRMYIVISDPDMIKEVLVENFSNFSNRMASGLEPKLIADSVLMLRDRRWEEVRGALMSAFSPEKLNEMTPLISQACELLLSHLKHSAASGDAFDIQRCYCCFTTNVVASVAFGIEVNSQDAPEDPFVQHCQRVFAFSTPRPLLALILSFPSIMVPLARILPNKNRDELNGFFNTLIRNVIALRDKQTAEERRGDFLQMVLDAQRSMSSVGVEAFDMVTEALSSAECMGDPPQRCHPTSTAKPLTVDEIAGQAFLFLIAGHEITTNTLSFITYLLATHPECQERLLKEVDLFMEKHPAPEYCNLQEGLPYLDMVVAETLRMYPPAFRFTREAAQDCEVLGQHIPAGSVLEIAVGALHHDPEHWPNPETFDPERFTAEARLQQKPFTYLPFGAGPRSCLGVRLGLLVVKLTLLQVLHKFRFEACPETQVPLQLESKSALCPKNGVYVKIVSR
Method: Under urethan anesthesia, about 10 μl arterial blood was collected in approximately 1 ml. of about 3.2% sodium citrate in a polystyrene tube from Okamoto-Aoki spontaneously hypertensive rats (SHR) (Taconic Farms, Germantown, N.Y.) between 19 and 24 weeks in age. The blood was diluted with about 3 ml of cold saline and centrifuged at room temperature for about 15 minutes at 460 xg. The platelet rich plasma (PRP) was separated. The platelets were isolated by centrifuging the PRP for about 10 minutes at 1060 xg and were washed in about 4 ml of cold oxygenated Krebs phosphate buffer, about pH 7.4. The chilled platelets recovered from centrifuging at 800 xg for about 10 minutes were resuspended in oxygenated Krebs phosphate buffer and diluted to contain 4.5-6.0×10^4 platelets/μl.
The inhibition of thromboxane (TX) formation was studied by determining the concentration of thromboxane B2 (TXB2), the stable hydrolysis product of TXA2. Assay samples, prepared on ice, contained about 200 μl platelet suspension, about 50 μl saline and about 50 μl vehicle or drug under study. The samples were incubated for about 10 minutes at about 37° C. in a metabolic shaker. The reaction was terminated by immersing the tubes in an ice bath and adding about 50 μl of approximately 0.5 M citric acid. The samples were centrifuged for about 10 minutes in a refrigerated centrifuge and the supernatants thus obtained were decanted and stored at about-20° C. The TXB2 content for each sample was determined by a direct radioimmunoassay (RIA) utilizing a TXB2 specific RIA kit purchased from New England Nuclear, Boston, Mass. and expressed as pg TXB2 formed minute^-1 sample^-1, from which the percent inhibition of TXB2 formation was calculated.

[1] = tested on: spontaneously hypertensive rats; experiment: Hypotensive activity in spontaneously hypertensive rats (mean arterial blood pressure); type: in vivo, spontaneously hypertensive rats (Okamoto strain); details: oral gavage, about 100 mg/kg or less, two doses 24 h apart, 0.9% NaCl loading with first; about 28 hours after initial dose; SHR average MABP 170±1.5 mm of mercury; (No. of rats) in parentheses
Method: The novel compounds of the present invention are active hypotensive agents and were tested for hypotensive activity by the method of P. S. Chan and D. Poorvin, Clinical and Experimental Hypertension, 1 (6), 817-830 (1979). Male, 16 week old, spontaneously hypertensive rats of the Okamoto strain, from Taconic Farms, Germantown, N.Y., having an average mean arterial blood pressure of 170±1.5 mm of mercury are used in the test. One to 3 rats are used per test compound. A rat is dosed by gavage with a test compound, suspended in approximately 2% pre-boiled starch at a concentration of about 50 mg/ml, at a dose of about 100 mg/kg of body weight or less, with approximately 0.9% sodium chloride loading at a dose of about 25 ml/kg of body weight. A second identical dose of the test compound, without sodium chloride loading is given about 24 hours later. At about 28 hours after the initial dose the mean arterial blood pressure is measured by the method of Chan and Poorvin vide supra. The procedure is repeated in a second and third rat when necessary.

Q: O=C(NCCn1cncn1)c1sc2ccccc2c1Cl [3-Chloro-N-[2-(1H-1,2,4-triazol-1-yl)ethyl]-benzo[b]thiophene-2-carboxamide] was tested. Which inhibition at 100 µM (thromboxane synthetase) did it give?
A: 90%

Q: How did the inhibition at 100 µM (thromboxane synthetase) turn out when O=C(NCCCCn1cncn1)c1sc2ccccc2c1Cl [3-Chloro-N-[4-(1H-1,2,4-triazol-1-yl)-butyl]benzo[b]thiophene-2-carboxamide] was run?
A: 90%

Q: And the “MABP (mean arterial blood pressure)” value [1]?
A: 119 m Hg

Q: What does the source list for O=C(NCCCn1cncn1)c1sc2ccccc2c1Cl [3-chloro-N--[3-(1H--1,2,4-triazol-1-yl)propyl]-benzo[b]thiophene-2-carboxamide]?
A: inhibition at 100 µM (thromboxane synthetase): 60%; MABP (mean arterial blood pressure) [1]: 137 m Hg

Q: Which results are given for O=C(NCCCn1cncn1)c1cc(Br)c(Br)s1 [4,5-dibromo-N--[3-(1H--1,2,4-triazol-1-yl)-propyl]-2-thiophene-carboxamide]?
A: inhibition at 100 µM (thromboxane synthetase): 86%; MABP (mean arterial blood pressure) [1]: 137 m Hg

Q: What does the source list for O=C(NCCCn1cncn1)c1ccc([N+](=O)[O-])o1 [5-Nitro-N-[3-(1H-1,2,4-triazol-y)propyl]-2-furancarboxamide]?
A: inhibition at 100 µM (thromboxane synthetase): 70%; MABP (mean arterial blood pressure) [1]: 132 m Hg

Q: Which inhibition at 100 µM (thromboxane synthetase) does the source give for O=C(NCCCn1cncn1)c1ccc(Br)o1 [5-bromo-N--[3-(1H--1,2,4-triazol-1-yl)propyl]-2-furancarboxamide] here?
A: 61%

Q: What about the “MABP (mean arterial blood pressure)” value [1] of the same compound?
A: 107 m Hg

Q: O=C(NCCCn1cncn1)c1ccc(Cl)s1 [5-chloro-N--[3-(1H--1,2,4-triazol-1-yl)propyl]-2-thiophenecarboxamide] was tested. Which inhibition at 100 µM (thromboxane synthetase) did it give?
A: 64%

Q: And the “MABP (mean arterial blood pressure)” value [1]?
A: 135 m Hg

Q: How did the inhibition at 100 µM (thromboxane synthetase) turn out when Cc1ccc(C(=O)NCCCn2cncn2)s1 [5-methyl-N--[3-(1H--1,2,4-triazol-1-yl)propyl]-2-thiophenecarboxamide] was run?
A: 56%

Q: O=C(NCCCn1cncn1)c1cc2ccccc2o1 [N--[3-(1H--1,2,4-triazol-1-yl)propyl]-2-benzo-furancarboxamide] was tested. Which inhibition at 100 µM (thromboxane synthetase) did it give?
A: 84%

Q: What about the “MABP (mean arterial blood pressure)” value [1] of the same compound?
A: 135 m Hg

Q: For O=C(NCCCn1cncn1)c1ccco1 [N--[3-(1H--1,2,4-triazol-1-yl)propyl]-2-furancarboxamide, fumarate], which “MABP (mean arterial blood pressure)” value [1] is on record?
A: 116 m Hg

Q: O=C(NCCCn1cncn1)c1cccs1 [N--[3-(1H--1,2,4-triazol-1-yl)propyl]-2-thio-phenecarboxamide] was tested. Which inhibition at 100 µM (thromboxane synthetase) did it give?
A: 30%

Q: What about the “MABP (mean arterial blood pressure)” value [1] of the same compound?
A: 130 m Hg

Q: O=C(C=Cc1cccs1)NCCCn1cncn1 [N--[3-(1H--1,2,4-triazol-1-yl)propyl]-3-(2-thien-yl)-2-propenamide] was tested. Which inhibition at 100 µM (thromboxane synthetase) did it give?
A: 68%

Q: How did the inhibition at 100 µM (thromboxane synthetase) turn out when O=C(NCCCn1cncn1)c1ccoc1 [N--[3-(1H--1,2,4-triazol-1-yl)propyl]-3-furan-carboxamide] was run?
A: 55%

Q: What about the “MABP (mean arterial blood pressure)” value [1] of the same compound?
A: 135 m Hg

Q: O=C(NCCCn1cncn1)c1ccco1 [N-[3-(1H-1,2,4-Triazol-1-yl)propyl]-2-furancarboxamide] was tested. Which inhibition at 100 µM (thromboxane synthetase) did it give?
A: 65%

Reference: US4542145A, “Substituted N-[(1H-1,2,4-triazol-1-yl)-alkyl]heteroarylcarboxamides” (American Cyanamid Company, priority 1984, dated 1985)
